Format in all cases: cell-based, human
One data set relates to HEK-293 cells. The experiment in a line: global ubiquitination (K-GG) mass spectrometry, USP30 knockdown. Conditions: CCCP 5 μM, 2 hours. How it is done: (§1) To determine Parkin substrates, HEK-293 GFP-Parkin inducible cells were treated with doxycycline for 24 hours, and then treated with 5 μM CCCP or DMSO vehicle control for 2 hours. To determine USP30 substrates, HEK-293T cells were transfected with human USP30 shRNA using Lipofectamine 2000 (Invitrogen) for 6 days, then treated as before. […] Preparation of cellular lysates and immunoprecipitation
To identify Parkin substrates, HEK 293T cells stably expressing inducible GFP-Parkin (human) were induced using doxycycline (1 μg/mL) for 24 hours, then treated with 5 μM CCCP or DMSO vehicle control for 2 hours. To determine USP30 substrates, HEK 293T cells were transfected with human USP30 shRNA using Lipofectamine 2000 (Invitrogen) for 6 days, then treated as above.
Immunoaffinity isolation and mass spectrometry methods were used to enrich and identify K-GG peptides from digested protein lysates as previously described (Xu et al., Nat. Biotech., 28: 868-873 (2010); Kim et al., Mol. Cell, 44: 325-340 (2011)). Cell lysates were prepared in lysis buffer (8M urea 20 mM HEPES pH 8.0 with 1 mM sodium orthovanadate, 2.5 mM sodium pyrophosphate, 1 mM ß-glycerophosphate) by brief sonication on ice. Protein samples (60 mg) were reduced at 60° C. for 20 min in 4.1 mM DTT, cooled 10 min on ice, and alkylated with 9.1 mM iodoacetamide for 15 min at room temperature in the dark. […]

Data set [1] has as its system GFP-Parkin expressing stable HEK-293 cells. Put plainly: HA-ubiquitin immunoprecipitation and immunoblot of MIRO and Tom20. Conditions: HA-ubiquitin immunoprecipitates, CCCP 5 μM, 2 hours. As to the method: For total lysate experiments, transfected HEK-293 cells were lysed at 24 hours post-transfection in SDS sample buffer (Invitrogen) containing sample reducing agent (Invitrogen). For immunoprecipitation experiments, cells were lysed at 24 hours (overexpression experiments) or 6 days (knockdown experiments) post-transfection in TBS buffer containing 0.5% SDS, and lysates were diluted with a buffer containing 1% Triton-X-100 and protease and phosphatase inhibitors. Ubiquitinated proteins were immunoprecipated from lysates of HA-ubiquitin transfected cells with anti-HA affinity matrix beads (Roche Applied Science). Inputs and precipitates were resolved by SDS-PAGE and analyzed by immunoblotting.
For total lysate experiments, cells were lysed after 24 hours in SDS sample buffer (Invitrogen) containing sample reducing agent (Invitrogen) and boiled at 95° C. for 10 minutes. Total lysates were resolved by SDS-PAGE and analyzed by immunoblotting. For immunoprecipitation experiments, cells were treated with 5 μM MG132 and the indicated concentrations and durations of CCCP at 24 hours (overexpression experiments) or 6 days (knockdown experiments) in 0.5% SDS in Tris-Buffered Saline (10 mM TRIS, 150 mM NaCl, pH 8.0) and boiled at 70° C. for 10 minutes. […] Inputs and anti-HA immunoprecipitates were resolved by SDS-PAGE and analyzed by immunoblotting. […]
(Immunoblotting shows a protein as a band on a membrane.)

In a further data set the test system is USP30. Put plainly: USP30 knockdown efficiency in HEK-293 cells. As to the method: as §1
Since Parkin and USP30 antagonistically regulate mitochondrial degradation, it was hypothesized that this E3 ligase and DUB act on some common substrates. To identify Parkin and USP30 substrates, global ubiquitination in cells was analyzed by mass spectrometry (MS) following immunoaffinity enrichment of ubiquitinated peptides from trypsin-digested extracts using the ubiquitin branch-specific (K-GG) antibodies. Global ubiquitination was analyzed and quantified by MS in HEK-293 cells in two different sets of conditions: 1) inducible Parkin overexpression, or 2) USP30 knockdown (USP30 knockdown efficiency was 85±5% (see FIG. 7C)). In each set, cells were treated with CCCP (5 μM, 2 hours) or vehicle control (DMSO).

In data set [2] the test system is GFP-Parkin stable cell lines (HEK-293). Put plainly: immunoblot of mitochondrial protein levels during CCCP treatment. Conditions: CCCP 5 μM, t=6 h, p<0.01. How it is done: For total lysate experiments, cells were lysed after 24 hours in SDS sample buffer (Invitrogen) containing sample reducing agent (Invitrogen) and boiled at 95° C. for 10 minutes. Total lysates were resolved by SDS-PAGE and analyzed by immunoblotting. For immunoprecipitation experiments, cells were treated with 5 μM MG132 and the indicated concentrations and durations of CCCP at 24 hours (overexpression experiments) or 6 days (knockdown experiments) in 0.5% SDS in Tris-Buffered Saline (10 mM TRIS, 150 mM NaCl, pH 8.0) and boiled at 70° C. for 10 minutes. […] Inputs and anti-HA immunoprecipitates were resolved by SDS-PAGE and analyzed by immunoblotting.
Beyond ubiquitination, does USP30 regulate protein turnover in addition to ubiquitination? […] In contrast to the outer membrane proteins, mitochondrial matrix protein HSP60 and inner membrane protein TIMM8A were unchanged by CCCP within this time frame. Overexpression of USP30 in GFP-Parkin stable cells greatly attenuated or abolished the CCCP-induced depletion of MIRO and Tom20 (FIG. 6G, H). Stabilization by USP30 overexpression appeared to be relatively specific for MIRO and Tom20, since CCCP-induced degradation of other mitochondria membrane proteins (MFN-1, TOM70, VDAC) was unaffected (FIG. 6G, H).

The subject of data set [3] is HeLa cells cotransfected with GFP-Parkin. The experiment in a line: mitochondrial degradation assay / DUB cDNA overexpression screen (Tom20 staining). Conditions: CCCP 20 μM, 24 hours. As to the method: To identify regulators of mitophagy, individual cDNAs from a FLAG-tagged DUB library were cotransfected into HeLa cells with GFP-Parkin using Lipofectamine 2000 (Invitrogen) (1:3 DUB-FLAG: GFP-Parkin cDNA ratio). After 24 hours of expression, cells were treated with […] CCCP for 24 hours, and fixed and stained using anti-Tom20 (Santa Cruz Biotechnology), anti-GFP (Aves Labs) and anti-FLAG (Sigma) primary antibodies. Following staining with secondary antibodies, images of random fields were acquired with a Leica SP5 Laser Scanning Confocal Microscope using a 40×/1.25 oil-objective (0.34 μm/pixel resolution, 1 μm confocal z-step size). Percent of GFP-Parkin and FLAG-DUB cotransfected cells containing Tom20 staining was scored blindly.
To identify DUBs that regulate mitochondria clearance, a FLAG-tagged human DUB cDNA library (97 DUBs) was screened in an established mitochondrial degradation assay (Narendra et al., J. Cell Biol., 183: 795-803 (2008)). In this assay, mitochondria depolarization induced by protonophore carbonyl cyanide 3-chlorophenylhydrazone (CCCP, 20 μM, 24 hours) results in marked loss of mitochondria in cultured cells overexpressing Parkin (as measured by staining for mitochondria outer membrane protein marker Tom20). […] Individual FLAG-tagged DUB cDNAs were cotransfected with GFP-Parkin, and their effects on CCCP-induced mitochondrial (Tom20) clearance were measured. […]

We go through two compounds from US20200172911A1, “USP30 INHIBITORS AND METHODS OF USE” (Genentech, Inc., priority 2012, published 2020).

Where only a bound is given, the exact number is not on record here.

“CCAGAGTCCTGTTCGATTT ((CCAGAGTCCTGTTCGATTT; as printed in the source, key not given here) [human USP30 shRNA]”: the “USP30 shRNA+CCCP/CCCP ubiquitination ratio for Tom20” value with HEK-293 cells (p=0.005) is given as 3.52. For the same compound, the “USP30 shRNA+CCCP/CCCP ubiquitination ratio for MIRO” value with HEK-293 cells (p=0.019) was determined as 2.95. The “increase in level of ubiquitinated MIRO” value in data set [1] was ~2.5 fold. Further, the USP30 knockdown efficiency in the data set with USP30 is on record as 85±5%.

Take `N#CC(C#N)=NNc1cccc(Cl)c1` [CCCP, carbonyl cyanide 3-chlorophenylhydrazone]: the “decrease in Tom20 protein level” value in data set [2] is 10+/−1%. Moreover, the “Parkin-transfected cells lacking Tom20 staining” value in data set [3] is > 80%.
